# Assay results: US20200038416A1, “METHODS OF TREATING CARDIAC CONDUCTION DEFECTS USING AMINOSTEROL COMPOSITIONS” (Enterin, Inc., priority 2018, published 2020)
# “And” between values parts separate entries of the source, which are not always exact repeats. Equal entries are not always repeated. “Also recorded” adds a separate entry of the source.
# Tests used:
# [1] = test system: patients with PD and constipation; test: Phase 2 trial Stage 2: bowel function / stool related indices on daily oral dosing; type: in vivo, human; conditions: for CSBM/week in the randomized cohort, Treatment (n = 6): baseline 0.8
# Procedure: Following successful screening, all subjects underwent a 14-day run-in period where the degree of constipation was assessed through a validated daily log (Zinsmeister et al. 2013) establishing baseline CSBMs/week. Subjects with an average of <3 CSBMs/week proceeded to dosing.
# In Stage 2, 34 patients were evaluated.
# The primary efficacy outcome variable was whether or not a subject was a “success” or “failure”. This is an endpoint based on subject diary entries for the “fixed dose” period prior to the endpoint assessment defined as average complete stool frequency increase by 1 or more over baseline, or 3 or more complete spontaneous stools/week. The subject was deemed a “success” if s/he met one or more of the criteria listed above, otherwise the subject was deemed a “failure”. The primary analysis was based on all subjects with a baseline assessment and an assessment at the end of the “fixed-dose” period and was a comparison of the proportion of successes with 0.10 (the null hypothesis corresponding to no treatment effect).
# [2] = set-up: species or system rats; conditions: rat, in vivo, po
# [3] = test system: patients with PD; test: CNS symptoms in Stage 2 (UPDRS, MMSE, PDHQ, BDI-II, hallucinations); type: in vivo, human; conditions: for patients whose hallucinations or delusions improved or disappeared during treatment: 6 patients with hallucinations (5) or delusions (1) at baseline
# Source text: Exploratory end-points, in addition to constipation, included for example, (i) depression assessed using the Beck Depression Inventory (BDI-II) (Steer et al. 2000) and Unified Parkinson's Disease Rating Scale (UPDRS); (ii) cognition assessed using the Mini Mental State Examination (MMSE), Unified Parkinson's Disease Rating Scale (UPDRS), and Trail Making Test (TMT); (iii) sleep and REM-behavior disorder (RBD) using a daily sleep diary, I-Button Temperature Assessment, a REM sleep behavior disorder (RBD) questionnaire (RBDQ) (Stiasny-Kolster et al. 2007), and the UPDRS; (iv) hallucinations assessed using the PD hallucinations questionnaire (PDHQ) (Papapetropoulos et al. 2008), the UPDRS, and direct questioning; (v) fatigue using the Parkinson's Disease Fatigue Scale (PFS-16) and the UPDRS; (vi) motor functions using the UPDRS; and (vii) non-motor functions using the UPDRS.
# (§1) Assessments were made at baseline and at the end of the fixed dose and washout periods. Circadian system status was evaluated by continuously monitoring wrist skin temperature (Thermochron iButton DS1921H; Maxim, Dallas) following published procedures (Sarabia et al. 2008).
# An exploratory analysis was done with respect to the sleep data, the body temperature data, mood, fatigue, hallucinations, cognition and other motor and non-motor symptoms of PD. Continuous measurements within a subject were compared with a paired t-test and continuous measurements between subject groups were compared with a two-group t-test. Categorical data were compared with a chi-squared test or a Fisher's exact test if the expected cell counts are too small for a chi-squared test.
# CNS symptoms were evaluated at baseline and at the end of the fixed dose period and the wash-out period (Table 12). Total UPDRS score was 64.4 at baseline, 60.6 at the end of the fixed dose period and 55.7 at the end of the wash-out period (p=0.002); similarly, the motor component of the UPDRS improved from 35.3 at baseline to 33.3 at the end of fixed dose to 30.2 at the end of wash-out (p=0.006). MMSE improved from 28.4 at baseline to 28.7 during treatment and to 29.3 during wash-out (p=0.0006). […] PDHQ improved from 1.3 at baseline to 1.8 during treatment and 0.9 during wash-out (p=0.03). Hallucinations were reported by 5 patients at baseline and delusions in 1 patient. […] The frequency of arm or leg thrashing reported in the sleep diary diminished progressively from 2.2 episodes/week at baseline to 0 at maximal dose. […] Unlike stool-related indices, the improvement in many CNS symptoms persisted during wash-out.
# [4] = test system: patients with PD; test: Circadian rhythm of wrist skin temperature; type: in vivo, human; conditions: 12 evaluable patients; for markers of circadian function (IS, RA, CFI, IV) of wrist skin temperature: fixed dose versus baseline
# Procedure: (6) I-Button Temperature Assessment. The I-Button is a small, rugged self-sufficient system that measures temperature and records the results in a protected memory section. The Thermochron I-Button DS1921H (Maxim Integrated, Dallas, Tex.) was used for skin temperature measurement. I-Buttons were programmed to sample every 10 mins., and attached to a double-sided cotton sport wrist band using Velcro, with the sensor face of the I-Button placed over the inside of the wrist, on the radial artery of the dominant hand. Subjects removed and replaced the data logger when necessary (i.e., to have a bath or shower). The value of skin temperature assessment in sleep research is that the endogenous skin warming resulting from increased skin blood flow is functionally linked to sleep propensity. From the collected data, the mesor, amplitude, acrophase (time of peak temperature), Rayleight test (an index of interdaily stability), mean waveforms are calculated.);
# as §1
# Circadian rhythm of skin temperature was evaluable in 12 patients (i.e., those who had recordings that extended from baseline through washout). Circadian system functionality was evaluated by continuously monitoring wrist skin temperature using a temperature sensor (Thermochron iButton DS1921H; Maxim, Dallas, Tex.) (Sarabia et al. 2008). […]
# Briefly, this analysis includes the following parameters: (i) the inter-daily stability (the constancy of 24-hour rhythmic pattern over days, IS); (ii) intra-daily variability (rhythm fragmentation, IV); (iii) average of 10-minute intervals for the 10 hours with the minimum temperature (L10); (iv) average of 10-minute intervals for the 5 hours with the maximum temperature (M5) and the relative amplitude (RA), which was determined by the difference between M5 and L10, divided by the sum of both. […]
# [5] = molecular target: αS (Homo sapiens, UniProt P37840); conditions: in vitro; cited from earlier work
structure (smiles),measurement,setting,value
"CC(C)[C@@H](CC[C@@H](C)[C@H]1CC[C@H]2[C@@H]3[C@H](O)C[C@H]4C[C@@H](NCCCNCCCCN)CC[C@]4(C)[C@H]3CC[C@]12C)OS(=O)(=O)O (single isomer, unassigned) [squalamine (ENT-01), squalamine]","CSBM/week in the randomized cohort, group later randomized to Placebo (n = 9)","[1]; Fixed dose period (on drug, before randomization), baseline 1.6",3.3 CSBM/week
same,"CSBM/week in the randomized cohort, Treatment (n = 6)",[1]; Fixed dose period,3.2 CSBM/week
same,"CSBM/week in the randomized cohort, Treatment (n = 6)",[1]; Randomized period (4-6 days continued treatment),2.4 CSBM/week
same,"CSBM/week in the randomized cohort, Treatment (n = 6)",[1]; Washout,0.9 CSBM/week
same,absorption from the intestine,[2],low
same,patients whose hallucinations or delusions improved or disappeared during treatment,[3],five and 5 of 6
same,patients whose hallucinations or delusions improved or disappeared during treatment,[3]; listed as ENT-01,five
same,improvement in Part 1 of the UPDRS,[3]; baseline 11.6 to wash-out 9.5,~20%
same,time hallucinations/delusions did not return following discontinuation,[3]; single patients,4 weeks and 2 weeks
same,"markers of circadian function (IS, RA, CFI, IV) of wrist skin temperature",[4],improved all markers of healthy circadian function
same,"markers of circadian function (IS, RA, CFI, IV) of wrist skin temperature",[4]; listed as ENT-01,significant positive impact; also recorded: improved all markers of healthy circadian function
same,circadian parameters during wash-out period,"[4]; wash-out versus baseline (IS, CFI)",improvement persisted for several of these circadian parameters
same,displacement of αS from membranes,[5],can displace αS from membranes in vitro
